PMC9886266, “New [1,2,4]triazolo[4,3-c]quinazolines as intercalative Topo II inhibitors: Design, synthesis, biological evaluation, and in silico studies” (PLOS ONE, 2023)

Columns and labels:
[1] = biological target: T1, Topoisomerase II (Topo II) (Homo sapiens, UniProt P11388); assay: In vitro Topo II inhibitory assay (TopoGEN Topo II drug screening kit); type: biochemical
T1 construct: purchased TopoGEN, Inc., Columbus
Protocol: The reported method described by Patra et al was applied using Topo II drug screening kit (TopoGEN, Inc., Columbus).
A typical enzyme reaction was structured to determine Topo II activity. The reaction mixture included Topo II (2 μl), substrate super coiled pHot1 DNA (0.25 μg), 50 μg/ml test compound (2 μl), and assay buffer (4 μl). To start the reaction, the mixture was allowed to incubate in 37°C for 30 min. To terminate the reaction, a mixture of 10% sodium dodecylsulphate (2 μl) and proteinase K (50 μg/mL) was added at 37°C for 15 min. then incubated for 15 min at 37°C.
(§1) After that, the DNA was run on 1% agarose gel in BioRad gel electrophoresis system for 1–2 h followed by staining with GelRedTM stain for 2 h and destained for 15 min with TAE buffer. The gel was imaged via BioRad’s Gel DocTMEZ system. Both supercoiled and linear strands DNA were incorporated in the gel as markers for DNA-Topo II intercalators. The results of IC50 values were calculated using the GraphPad Prism version 7. Each reaction was performed in duplicate, and at least three independent determinations of each IC50 were made. […]
S2.2. Measurement of topoisomerase II Activity […]
analyzed for their Topo II inhibitory activities. The reported method described by Patra et al was applied using Topo II drug screening kit (TopoGEN, Inc., Columbus).
A typical enzyme reaction was structured to determine Topo II activity. The reaction mixture included Topo II (2 µl), substrate super coiled pHot1 DNA (0.25 µg), 50 µg/ml test compound (2 µl), and assay buffer (4 µl). To start the reaction, the mixture was allowed to incubate in 37 °C for 30 min. To terminate the reaction, a mixture of 10% sodium dodecylsulphate (2 µl) and proteinase K (50 µg/mL) was added at 37 °C for 15 min. then incubated for 15 min at 37 °C.
as §1

HCT-116 cells = assay: Flow cytometry apoptosis analysis (Annexin V and PI double staining); type: cell-based, human; conditions: HCT-116, 2.44 μM, 48 h
Protocol: The Annexin V and PI double staining experiment was used to further investigate the apoptotic effect of compound 16 in HCT-116 cells. In this process, HCT-116 cells were treated with compound 16 at a concentration of 2.44 μM and incubated for 48 h. The apoptotic effect of compound 16 on HCT-116 cells was about nine times greater than that of untreated HCT-116 cells. In comparison to control cells (5.62%), compound 16 caused 48.82% programmed cell death (early apoptosis = 46.77% & late apoptosis = 2.05%) (Table 3 and Fig 4B).
Flow cytometry cell apoptosis analysis was used to investigate the apoptotic effect of compound 16 as follows.
[…] cells were treated with compound 16 (2.44 μM) for 48 h, collected by trypsin, centrifuged, washed two successive times with PBS, suspended in 500 μl binding buffer, and double stained with 5 μl Annexin V-FITC and 5 μl PI in the dark at room temperature for 15 min. The stained cells were measured using Epics XL-MCL™ Flow Cytometer and analyzed using Flowing software. […]
S2.6. Flow cytometry analysis for apoptosis
Flow cytometry cell apoptosis analysis was used to investigate the apoptotic effect of the synthesized compounds. […] cells were treated with compound 16 (2.44 µM) for 48 h, collected by trypsin, centrifuged, washed two successive times with PBS, suspended in 500 μl binding buffer, and double stained with 5 μl Annexin V-FITC and 5 μl PI in the dark at room temperature for 15 min. The stained cells were measured using Epics XL-MCL™ Flow Cytometer and analyzed using Flowing software.

T1 sequence (P11388 whole entry): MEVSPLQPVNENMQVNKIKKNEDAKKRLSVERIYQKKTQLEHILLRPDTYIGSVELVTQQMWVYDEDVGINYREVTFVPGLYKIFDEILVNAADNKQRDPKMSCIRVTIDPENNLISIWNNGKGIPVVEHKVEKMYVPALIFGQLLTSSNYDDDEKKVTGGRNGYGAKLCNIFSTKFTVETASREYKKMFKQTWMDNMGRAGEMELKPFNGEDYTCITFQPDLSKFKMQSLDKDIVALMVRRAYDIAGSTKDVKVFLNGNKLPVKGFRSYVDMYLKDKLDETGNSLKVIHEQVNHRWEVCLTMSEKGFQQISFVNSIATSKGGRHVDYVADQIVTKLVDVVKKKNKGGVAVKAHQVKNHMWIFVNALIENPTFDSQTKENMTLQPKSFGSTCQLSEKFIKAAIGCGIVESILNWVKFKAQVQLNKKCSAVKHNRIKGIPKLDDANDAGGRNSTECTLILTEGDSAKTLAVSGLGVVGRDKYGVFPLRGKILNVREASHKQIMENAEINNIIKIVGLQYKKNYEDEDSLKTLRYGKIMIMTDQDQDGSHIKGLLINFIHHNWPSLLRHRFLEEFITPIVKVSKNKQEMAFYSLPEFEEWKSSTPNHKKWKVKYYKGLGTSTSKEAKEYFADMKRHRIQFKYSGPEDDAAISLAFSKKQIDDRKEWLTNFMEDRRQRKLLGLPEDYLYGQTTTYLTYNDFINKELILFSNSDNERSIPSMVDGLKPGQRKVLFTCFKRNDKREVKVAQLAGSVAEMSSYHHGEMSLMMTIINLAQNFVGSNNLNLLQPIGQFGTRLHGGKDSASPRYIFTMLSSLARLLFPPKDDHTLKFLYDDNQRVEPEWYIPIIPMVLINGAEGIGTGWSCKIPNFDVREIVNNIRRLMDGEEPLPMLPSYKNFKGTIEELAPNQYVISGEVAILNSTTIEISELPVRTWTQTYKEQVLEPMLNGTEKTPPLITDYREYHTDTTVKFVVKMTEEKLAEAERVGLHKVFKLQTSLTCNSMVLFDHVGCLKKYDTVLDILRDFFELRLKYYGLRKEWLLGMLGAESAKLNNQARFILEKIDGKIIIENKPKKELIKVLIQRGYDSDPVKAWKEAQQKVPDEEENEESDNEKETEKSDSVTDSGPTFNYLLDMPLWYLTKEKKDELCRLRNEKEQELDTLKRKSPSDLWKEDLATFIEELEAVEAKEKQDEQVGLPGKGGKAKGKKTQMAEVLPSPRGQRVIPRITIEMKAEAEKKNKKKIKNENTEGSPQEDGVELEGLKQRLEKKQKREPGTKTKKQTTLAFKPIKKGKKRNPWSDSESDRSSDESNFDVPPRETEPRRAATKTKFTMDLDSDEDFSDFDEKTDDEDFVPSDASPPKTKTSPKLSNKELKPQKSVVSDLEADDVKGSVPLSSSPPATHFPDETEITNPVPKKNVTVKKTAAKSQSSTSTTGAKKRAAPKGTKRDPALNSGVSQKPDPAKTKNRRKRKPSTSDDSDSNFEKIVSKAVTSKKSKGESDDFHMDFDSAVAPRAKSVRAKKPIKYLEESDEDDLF

In the case of `CCCNc1nc2ccccc2c2nnc(C(F)(F)F)n12` [Compound 16, N-Propyl-3-(trifluoromethyl)-[1,2,4]triazolo[4,3-c]quinazolin-5-amine], the IC50 [1] is reported as 15.2 ± 0.9 µM, the “Apoptosis Early (Right Bottom)” value (HCT-116 cells; mean ± SEM) is reported as 46.77 ± 0.83 % and the “Apoptosis Late (Right Top)” value (HCT-116 cells; mean ± SEM) is reported as 2.05 ± 0.92%. The “Necrosis (Left Top)” value (HCT-116 cells; mean ± SEM) was 0.90 ± 0.36, the “Viable (Left Bottom)” value (HCT-116 cells; mean ± SEM) was 50.28 ± 2.10 and the “Programmed cell death (early + late apoptosis)” value (HCT-116 cells; control cells 5.62%) was 48.82%.
